Test results reported in article PMC12737022, “Evaluations of Sex Differences in Dosimetry in Rats Following Perfluorohexanesulfonamide (PFHxSA) Oral Exposure” (Toxics, 2025).
Read-outs that look alike come from different tables or passages of the source.

Tests used:
[1] = set-up: method as in Smeltz et al. [60]; details: ref Smeltz et al. [60], cited from earlier work
human hepatocytes = system: human hepatocytes; set-up: method as in Crizer et al. [59]; details: ref Crizer et al. [59]; cited from earlier work
[2] = Ultracentrifugation plasma protein binding assay, rat plasma; format: in vitro ADME; details: for fraction unbound at 1 h, 10 µM: both sexes, SD
Protocol: Human and rat plasma were evaluated for plasma protein binding of PFHxSA and PFHxS using ultracentrifugation. Data generated in human plasma were obtained from an earlier study; for this study, data were generated in rat plasma following the same protocol as described by Smeltz et al.. SD rat plasma (pooled, mixed sex) was obtained from a commercial vendor (BioIVT, Westbury, NY, USA). Briefly, PFHxSA and PFHxS were added to the plasma to achieve a final assay concentration of 10 µM. Following a 1 h 37 °C incubation, 1 mL aliquots from each plasma solution were drawn in triplicate and transferred to polycarbonate ultracentrifuge tubes. These samples underwent ultracentrifugation (Beckman OptimaMax; Beckman Coulter Inc., Indianapolis, IN, USA) at 850,000× g for 4 h at 37 °C; after completion, the aqueous fraction (AF) was collected by transferring the supernatant to a new tube. Two sets of samples of the original PFAS-spiked whole plasma were also collected after a 1 h or a 5 h incubation at 37 °C. All samples were combined with 3 volumes of ice-cold ACN containing relevant internal standard, vigorously mixed, then centrifuged at 12,000× g for 10 min at 4 °C. Supernatants were collected and then stored at <−70 °C until analysis.
Targeted, quantitative analysis of in vitro hepatocyte metabolic stability and plasma protein binding assay samples was conducted on a Waters (Milford, MA, USA) Xevo-TQS micro ultra-high-performance liquid chromatography tandem mass spectrometry system (UPLC-MS/MS), modified with a PFAS analysis kit. Samples were analyzed in negative ion mode with UniSpray ionization. Samples were analyzed in triplicate, with a reference compound included to evaluate assay performance. A CORTECS T3 column (Waters; 3 mm × 100 mm, 2.7 µm) was used for chromatographic separation with a flow rate of 0.6 mL/min and a temperature of 55 °C. Gradient elution was used with mobile phase A (95:5 H2O/ACN) and mobile phase B (95:5 ACN/H2O), each with 2.5 mM of ammonium acetate added. More details are provided in Smeltz et al..
(§1) Intrinsic hepatic clearance (Clint) and fraction unbound in plasma (fup) were calculated from the experimental point estimate data as described in Dobreniecki et al.. Steady-state concentrations (Css) were derived based on zero-order uptake of an assumed daily dose from the gut (assuming 100% intestinal bioavailability) but considering hepatic clearance and non-metabolic renal clearance. Renal clearance was calculated using the glomerular filtration rate (a species-dependent constant) and the fraction unbound in blood (fub), estimated by adjusting the experimental fup for blood/plasma partitioning. The Css calculations, along with underlying species-specific physiologic scalars, are detailed in SI Texts S6 and S7.

[3] = In vitro-in vivo extrapolation (IVIVE) to estimate Css, rat
Protocol: as §1, with “S7. […]” for “S7.”
hepatocytes). In equation (C), the scalar 2000 is used to adjust the assay cell number to be consistent with units of 1 million cells in the Clint equation.
Text S7 In Vitro-In Vivo Extrapolation (IVIVE) Calculations
The pharmacokinetic equation used to estimate expected steady-state concentrations (Css) is based on zero-order uptake of a daily dose from the gut (assuming 100% bioavailability) with both nonmetabolic renal clearance (Clrenal) and hepatic clearance (Clhepatic) (Equation D). The chemical input rate (ko) is the product of the intake dosage and the model body weight; this represents the numerator of Equation D. The Clrenal calculation is shown in the first part of the denominator of Equation D; it is the product of the species-dependent glomerular filtration rate (GFR) and the unbound fraction in blood (fub) of the parent compound. The Clhepatic calculation is shown in the second part of the denominator of Equation D; it is the product of the species-dependent liver blood flow constant, the fub of the parent compound, and the experimentally derived intrinsic clearance (shown in Equation C) divided by the sum of these three values. All values used in Equation D are for first-order conditions of metabolism in the […]

[4] = set-up: method as in PMID 37756184; details: bariatric surgery patients; cited from earlier work

In the case of `O=S(=O)(O)C(F)(F)C(F)(F)C(F)(F)C(F)(F)C(F)(F)C(F)(F)F` [PFHxS, perfluorohexane sulfonic acid], the “fup (fraction unbound in plasma)” value ([1]; Human plasma) is listed as 0.0009 ^1, the “fub (fraction unbound in blood)” value ([1]; Human) is listed as 0.0016 ^1 and the “Clhep (hepatic clearance)” value (human hepatocytes) is listed as 0 ^2 L/h. The fraction unbound at 1 h, 10 µM ([2]; blood (estimated from fup in plasma), Rat, fup adjusted for blood/plasma partitioning, read-out: fub (fraction unbound in blood)) was 0.0014, the fraction unbound at 1 h, 10 µM ([2]; Rat plasma, 10 µM, ultracentrifugation, read-out: fup (fraction unbound in plasma)) was 0.0008 and the “Plasma binding of PFHxS higher than PFHxSA” value ([2]; rat plasma) was 25%. The “Css (steady-state concentration)” value ([3]; Rat, IVIVE-derived, assumes 1 mg/kg/day exposure) was 243 µM, the CL renal ([3]; Rat, non-metabolic, GFR x fub, read-out: Clrenal (renal clearance) (converted)) was 0.00167 mL/min and the “PFHxS Css higher than PFHxSA Css” value ([3]; rat) was 1.8 fold. For the same compound, the “Human liver/plasma partitioning Kp” value [4] was 0.12.
